Measurements taken from US8664225B2, “1-[2-(2,4-dimethylphenylsulfanyl)-phenyl] piperazine as a compound with combined serotonin reuptake, 5-HT3 and 5-HT1A activity for the treatment of pain or residual symptoms in depression relating to sleep and cognition” (H. Lundbeck A/S, priority 2007, dated 2014).

Experiments:
[1] = target: Human serotonin transporter (Homo sapiens, UniProt P31645); assay: Human serotonin transporter, blockade of 5-HT uptake; format: biochemical
Rat 5-HT3 receptor = target: T1, Rat 5-HT3 receptor (Rattus norvegicus, UniProt P35563); assay: Rat 5-HT3 receptor functional assay (antagonism); format: biochemical
T1 sequence (P35563 24-483): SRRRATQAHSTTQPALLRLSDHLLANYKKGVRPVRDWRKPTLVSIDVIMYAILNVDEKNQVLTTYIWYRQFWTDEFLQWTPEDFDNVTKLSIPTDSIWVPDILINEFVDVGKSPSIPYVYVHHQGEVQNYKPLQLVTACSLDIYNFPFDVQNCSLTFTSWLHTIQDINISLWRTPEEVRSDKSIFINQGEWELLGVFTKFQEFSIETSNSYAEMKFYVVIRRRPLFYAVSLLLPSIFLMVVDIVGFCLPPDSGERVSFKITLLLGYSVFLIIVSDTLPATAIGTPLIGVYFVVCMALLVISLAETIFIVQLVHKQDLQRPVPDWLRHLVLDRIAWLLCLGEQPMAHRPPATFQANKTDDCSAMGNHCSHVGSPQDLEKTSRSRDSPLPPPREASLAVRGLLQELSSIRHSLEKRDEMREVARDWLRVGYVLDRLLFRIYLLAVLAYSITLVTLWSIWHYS

Human 5-HT3A receptor = target: T2, Human 5-HT3A receptor (Homo sapiens, UniProt P46098); assay: Human 5-HT3A receptor functional assay; format: biochemical; details: read-out: IC50 (antagonism in functional assay)
T2 sequence (P46098 24-478): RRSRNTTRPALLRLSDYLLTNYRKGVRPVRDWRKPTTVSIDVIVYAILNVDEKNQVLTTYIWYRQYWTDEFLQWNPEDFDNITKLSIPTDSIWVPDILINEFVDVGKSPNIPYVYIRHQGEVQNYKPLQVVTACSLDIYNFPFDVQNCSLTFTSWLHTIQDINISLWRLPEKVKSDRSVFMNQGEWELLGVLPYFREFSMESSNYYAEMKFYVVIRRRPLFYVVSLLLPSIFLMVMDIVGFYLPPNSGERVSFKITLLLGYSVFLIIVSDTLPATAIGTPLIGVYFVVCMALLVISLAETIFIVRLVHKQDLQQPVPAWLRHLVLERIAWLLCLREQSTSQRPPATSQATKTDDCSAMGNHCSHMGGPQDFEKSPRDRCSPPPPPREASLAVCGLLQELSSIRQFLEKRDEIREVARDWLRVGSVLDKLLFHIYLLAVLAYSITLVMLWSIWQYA

human 5HT3 receptor = target: T3, human 5HT3 receptor (Homo sapiens, UniProt P46098); assay: Human 5HT3 receptor in vitro binding assay
T3 sequence (P46098 24-478): T2 sequence (P46098 24-478)

mice = assay: Mouse intradermal formalin test; format: in vivo; details: formalin 4.5% into hind paw
Protocol: In this model, mice receive an injection of formalin (4.5%, 20 μl) into the left hind paw. The irritation caused by the formalin injection elicits a characteristic biphasic behavioural response, as quantified by the amount of time spent licking the injured paw. The first phase (˜0-10 minutes) represents direct chemical irritation and nociception, whereas the second (˜20-30 minutes) is thought to represent pain of neuropathic origin. The two phases are separated by a quiescent period in which behaviour returns to normal. The effectiveness of test compounds to reduce the painful stimuli is assessed by counting the amount of time spent licking the injured paw in the two phases.

patients [2] = assay: Clinical trial in patients, HAM-D sleep items 4, 5 and 6; format: in vivo, human; details: 5 and 10 mg daily against placebo, 6 weeks, approximately 100 patients per arm, HBr salt, FIGS. 23-25
Protocol: (§1) The HAM-D scale may be used to assess the severity of depression in patients by means of a 24 items questionnaire. Item 4, 5 and 6 of the scale relate to how the patients sleep, i.e. is it easy to fall asleep (insomnia Early), does the patient wake up during the night (Insomnia Middle), and does the patient wake up early in the morning (Insomnia Late). The compound was tested at 5 and 10 mg daily against placebo with approximately 100 patients per arm.

patients [3] = assay: Clinical trial in patients, sexually related adverse effects reported; format: in vivo, human; details: approximately 100 patients
Protocol: as §1
This notion was further supported by clinical trials conducted in patients. The above mentioned clinical trial in patients also captured sexual adverse effects reported by the patients.

healthy subjects = assay: Clinical trials in healthy subjects, sexual dysfunction reported; format: in vivo, human; details: of 114 healthy subjects exposed

Chain of Human serotonin transporter (P31645 whole entry): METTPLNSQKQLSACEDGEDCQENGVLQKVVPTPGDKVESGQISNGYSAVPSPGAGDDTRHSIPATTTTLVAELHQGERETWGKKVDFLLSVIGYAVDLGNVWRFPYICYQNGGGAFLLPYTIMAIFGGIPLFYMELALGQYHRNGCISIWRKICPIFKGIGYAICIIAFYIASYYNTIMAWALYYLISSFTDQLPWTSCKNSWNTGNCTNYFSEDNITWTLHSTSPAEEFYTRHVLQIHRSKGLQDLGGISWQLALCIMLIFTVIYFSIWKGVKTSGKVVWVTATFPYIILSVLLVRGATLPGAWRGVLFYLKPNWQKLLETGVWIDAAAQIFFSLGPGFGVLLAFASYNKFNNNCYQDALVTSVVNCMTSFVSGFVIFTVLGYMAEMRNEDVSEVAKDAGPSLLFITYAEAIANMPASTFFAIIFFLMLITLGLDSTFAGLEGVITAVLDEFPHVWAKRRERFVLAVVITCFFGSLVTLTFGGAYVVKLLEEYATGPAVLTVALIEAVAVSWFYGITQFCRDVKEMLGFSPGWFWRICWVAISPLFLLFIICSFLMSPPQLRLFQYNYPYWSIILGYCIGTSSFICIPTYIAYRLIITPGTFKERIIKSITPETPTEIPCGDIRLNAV

Cc1ccc(Sc2ccccc2N2CCNCC2)c(C)c1 [compound I, 1-[2-(2,4-dimethylphenylsulfanyl)-phenyl]piperazine]
IC50 [1]: 40 nM | IC50 (Rat 5-HT3 receptor): 0.2 nM | IC50 (Human 5-HT3A receptor): ~20 nM | Ki (human 5HT3 receptor): 4.5 nM | first phase scores (time spent licking the paw, 0-5 minutes) (mice; FIG. 18a, highest dose): significant reduction | second phase pain scores (time spent licking the paw, 20-30 minutes) (mice; FIG. 18b): significant reduction | sleep pattern, HAM-D items 4, 5 and 6 (Insomnia Early, Middle, Late) (patients [2]): large and dose dependent improvement | number of patients reporting Anorgasmia (patients [3]; 5 mg daily): 0 | number of patients reporting Ejaculation delayed (patients [3]; 5 mg daily): 0 | number of patients reporting Erectile dysfunction (patients [3]; 5 mg daily): 0 | number of patients reporting Libido decreased (patients [3]; 5 mg daily): 1 | number of patients reporting Loss of libido (patients [3]; 5 mg daily): 1 | number of patients reporting Orgasm abnormal (patients [3]; 5 mg daily): 0 | number of patients reporting Orgasmic sensation decreased (patients [3]; 5 mg daily): 0 | number of patients reporting Anorgasmia (patients [3]; 10 mg daily): 0 | number of patients reporting Ejaculation delayed (patients [3]; 10 mg daily): 0 | number of patients reporting Erectile dysfunction (patients [3]; 10 mg daily): 0 | number of patients reporting Libido decreased (patients [3]; 10 mg daily): 1 | number of patients reporting Loss of libido (patients [3]; 10 mg daily): 0 | number of patients reporting Orgasm abnormal (patients [3]; 10 mg daily): 0 | number of patients reporting Orgasmic sensation decreased (patients [3]; 10 mg daily): 0 | number of subjects reporting sexual dysfunction (healthy subjects): one
